The results in this text go back to patent EP1275386A1, “SOLID […] IMPROVED ABSORBABILITY” (FUJISAWA PHARMACEUTICAL CO., LTD., priority 2000, dated 2001).

Series [1] can be described thus: Test on solubility of active component in water (Test Example 1). The note with it: 15mg equivalent of Active Component 1 in 7.5 mL of water at 37 °C, agitated with a stirrer; dihydrate. The format is physicochemical. An excerpt:
Compared was the solubility of the solid dispersions obtained in Examples 2, 3 and 5 (referred to as "Preparation 2," "Preparation 3" and "Preparation 5," respectively, hereinafter) containing as an active ingredient N-(3,4-dimethoxybenzyl)-2-[(trans-4-formamidocyclohexyl)amino]-5-nitrobenzamide dihydrate (referred to as "Active Component 1" hereinafter), the amorphous Active Component 1 obtained in Comparative Example 1 and the crystal Active Component 1 obtained in Production Example 1. The test was performed by adding Preparations 2, 3 and 5, the amorphous Active Component 1 and the crystal Active Component 1 each containing 15mg equivalent of Active Component 1 to 7.5 mL of water heated to 37 °C, agitating the resulting mixtures with a stirrer and measuring the concentration of Active Component 1 in the solutions. The results are shown in Fig. 1, which is a graphical representation showing the change with time of the solubility in water of Preparations 2, 3 and 5, the amorphous Active Component 1 and the crystal Active Component 1. […]

Series [2] can be described thus: Test on crystal state of Active Component 1 by DSC, storage at 70 °C for 7 days (Test Example 2). The format is physicochemical. How it is done:
Preparations 2 and 3 containing Active Component 1 and the amorphous Active Component 1 after being stored at 70 °C for 7 days were tested on the crystal state of Active Component 1 by differential scanning calorimetry (DSC for short hereinafter). […]
Background: In DSC, transitions show as peaks or steps in heat flow.

`COc1ccc(CNC(=O)c2cc([N+](=O)[O-])ccc2N[C@H]2CC[C@H](NC=O)CC2)cc1OC.O.O` [Amorphous Active Component 1, N-(3,4-dimethoxybenzyl)-2-[(trans-4-formamidocyclohexyl)amino]-5-nitrobenzamide dihydrate]: the “Maximum Concentration Achieved of Active Component 1 in water” value in series [1] stood at 8.68 µg/mL. Besides, the “D S C analysis results” value in series [2] (After storage at 70 °C for 7 days) was “Endothermic peak caused by melting indicative of existence of crystal was recognized”; in series [2] (Before storage) it was “Endothermic peak caused by melting indicative of existence of crystal was not recognized”. Further, the “change of crystal state of Active Component 1” value in series [2] (after being stored at 70 °C for 7 days, DSC) was “changed from the amorphous state to a crystal state”.

Consider `COc1ccc(CNC(=O)c2cc([N+](=O)[O-])ccc2N[C@H]2CC[C@H](NC=O)CC2)cc1OC.O.O` [Crystal Active Component 1, N-(3,4-dimethoxybenzyl)-2-[(trans-4-formamidocyclohexyl)amino]-5-nitrobenzamide dihydrate], for which, in series [1], the “Maximum Concentration Achieved of Active Component 1 in water” value came to 0.38 µg/mL.
